Test results reported in patent US5840722A, “Use of carboxylic acid derivatives as drugs” (BASF Aktiengesellschaft, priority 1994, dated 1998).
pIC50, pKi: −log10 of the molar value. Read-outs that look alike come from different tables or passages of the source.

How the values were obtained:
human ETA receptor = target: T1, human ETA receptor (Homo sapiens, UniProt P25101); assay: Receptor-binding studies, ETA receptor binding assay ([125I]-ET1)
T1 construct: expressed in transfected cells; host or cells: CHO cells (membranes)
T1 sequence (P25101 21-427): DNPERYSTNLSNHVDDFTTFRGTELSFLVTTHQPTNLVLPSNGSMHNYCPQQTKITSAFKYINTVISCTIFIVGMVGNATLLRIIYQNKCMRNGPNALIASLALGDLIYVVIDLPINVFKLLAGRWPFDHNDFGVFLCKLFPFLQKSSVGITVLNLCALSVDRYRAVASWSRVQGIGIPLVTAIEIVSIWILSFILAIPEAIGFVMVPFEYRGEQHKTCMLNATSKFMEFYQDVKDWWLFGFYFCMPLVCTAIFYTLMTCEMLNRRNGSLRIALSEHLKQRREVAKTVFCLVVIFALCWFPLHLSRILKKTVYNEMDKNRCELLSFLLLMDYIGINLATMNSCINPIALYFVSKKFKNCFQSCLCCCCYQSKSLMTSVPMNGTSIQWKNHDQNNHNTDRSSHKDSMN
Protocol: After 48 h, the cells were washed with PBS and incubated with 0.05% trypsin-containing PBS for 5 min. […] The membranes were centrifuged at 20,000×g for 10 min, and the pellet was stored in liquid nitrogen. […] (ETB receptor assay) in the presence and absence of test substance. The non-specific binding was determined using 10^-7 M ET1. After 30 min, the free and the bound radioligand were separated by filtration through a GF/B glass fiber filter (Whatman, England) in a Skatron cell collector (Skatron, Lier, Norway), and the filters were washed with ice-cold tris-HCl buffer, pH 7.4 with 0.2% BSA. The radioactivity collected on the filters was quantified using a Packard 2200 CA liquid scintillation counter. The Ki values were determined by non-linear regression analysis using the LIGAND program.

ETB receptor = target: T2, ETB receptor (Cavia porcellus, UniProt H0VTF3); assay: Receptor-binding studies, ETB receptor binding assay ([125I]-RZ3, guinea pig cerebellar membranes)
T2 construct: Guinea pig cerebella were homogenized in a Potter-Elvejhem homogenizer; from tissue; host or cells: guinea pig cerebellum (membranes)
T2 sequence (H0VTF3 27-415): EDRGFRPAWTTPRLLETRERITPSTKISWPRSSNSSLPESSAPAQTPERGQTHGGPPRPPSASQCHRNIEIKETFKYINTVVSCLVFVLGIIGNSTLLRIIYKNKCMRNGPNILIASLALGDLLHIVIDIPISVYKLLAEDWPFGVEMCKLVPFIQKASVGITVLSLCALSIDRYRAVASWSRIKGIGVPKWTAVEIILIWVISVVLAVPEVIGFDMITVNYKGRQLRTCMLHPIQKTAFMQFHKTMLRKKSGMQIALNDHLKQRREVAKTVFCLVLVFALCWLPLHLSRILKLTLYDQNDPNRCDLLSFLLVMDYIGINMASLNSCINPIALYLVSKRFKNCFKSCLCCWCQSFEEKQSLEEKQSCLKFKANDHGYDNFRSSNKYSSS
Protocol: Cloned human ETA receptor-expressing CHO cells and guinea pig cerebellar membranes with>60% ETB receptors compared with ETA receptors were used for binding studies.
Guinea pig cerebella were homogenized in a Potter-Elvejhem homogenizer and obtained by differential centrifugation at 1000×g for 10 min and repeated centrifugation of the supernatant at 20,000×g for 10 min.
(ETB receptor assay) in the presence and absence of test substance. The non-specific binding was determined using 10^-7 M ET1. After 30 min, the free and the bound radioligand were separated by filtration through a GF/B glass fiber filter (Whatman, England) in a Skatron cell collector (Skatron, Lier, Norway), and the filters were washed with ice-cold tris-HCl buffer, pH 7.4 with 0.2% BSA. The radioactivity collected on the filters was quantified using a Packard 2200 CA liquid scintillation counter.
The Ki values were determined by non-linear regression analysis using the LIGAND program.

[1] = target: T3, endothelin receptor of subtype A (Rattus norvegicus, UniProt P26684); assay: Functional in vitro assay system for endothelin receptor (subtype A) antagonists (ET1-induced intracellular calcium increase); type: cell-based
T3 construct: endogenous endothelin receptor of subtype A has been detected; endogenous in cells
T3 sequence (P26684 21-426): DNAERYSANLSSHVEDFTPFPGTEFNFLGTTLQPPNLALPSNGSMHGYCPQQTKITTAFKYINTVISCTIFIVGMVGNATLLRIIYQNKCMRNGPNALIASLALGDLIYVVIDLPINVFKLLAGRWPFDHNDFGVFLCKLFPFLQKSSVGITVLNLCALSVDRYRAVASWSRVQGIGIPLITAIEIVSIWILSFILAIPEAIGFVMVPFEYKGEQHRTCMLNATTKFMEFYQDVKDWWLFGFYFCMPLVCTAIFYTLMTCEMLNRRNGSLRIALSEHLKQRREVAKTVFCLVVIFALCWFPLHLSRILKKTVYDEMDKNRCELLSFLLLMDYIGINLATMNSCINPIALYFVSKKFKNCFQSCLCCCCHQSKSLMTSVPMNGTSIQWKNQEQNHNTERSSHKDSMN
Description: Functional in vitro assay system for searching for endothelin receptor (subtype A) antagonists This assay system is a functional cell-based assay for endothelin receptors. Certain cells when stimulated with endothelin 1 (ET1) show an increase in the intracellular calcium concentration. This increase can be measured in intact cells which have been loaded with calcium-sensitive dyes. […] The cells were then washed twice with buffer A and resuspended at 2 10^6 /ml. The fluorescence signal at Ex/Em 380/510 from 2×10^5 cells per mL was recorded continuously at 30° C. The test substances were added to the cells and, after incubation with ET1 for 3 min, the maximum change in the fluorescence was determined. The response of the cells to ET1 without previous addition of a test substance served as control and was set equal to 100%.

Row | Compound | pKi (human ETA receptor; cloned human ETA receptor-expressing CHO cell membranes, 25 pM [125I]-ET1, 25° C., 30 min, read-out: Ki ET-A) | pKi (ETB receptor; guinea pig cerebellar membranes, 25 pM [125I]-RZ3, 25° C., 30 min, read-out: Ki ET-B) | pIC50 ([1]; rat fibroblasts loaded with Fura 2-am, ET1-induced fluorescence change, 30° C., read-out: IC50) | pKi (human ETA receptor) | pKi (ETB receptor) | pIC50 [1]
1 | COc1cc(OC)nc(OC(C(=O)O)C(C)(Oc2ccc(C(C)C)cc2)c2ccccc2)n1 (stereo not drawn) [Compound 4.42] | 6.60 | 5.52 | 6.13 |  |  | 
2 | COc1cc(OC)nc(OC(C(=O)O)C(C)(Oc2ccc(SC)cc2)c2ccccc2)n1 (stereo not drawn) [Compound 4.58] |  |  |  | 6.80 | 5.33 | 6.00
